# Assay results reported in article PMC8596534, “Pyridine substituted BODIPYs: synthesis, characterization and cholinesterease, α-glucosidase inhibitory, DNA hydrolytic cleavage effects” (Turkish Journal of Chemistry, 2021).
# Legend:
# [1] = biological target: α-glucosidase from Saccharomyces cerevisiae; test: α-Glucosidase inhibition; assay type: biochemical
# Source text: (§1) The materials, equipment, AChE, BuChE, α-glucosidase inhibitory, and DNA hydrolytic cleavage actions are given as supplementary information.
# The inhibitory properties of the compounds on α-glucosidase were investigated according to our previously reported methods. The results were expressed as IC50 values.
# [2] = biological target: T1, butyrylcholinesterase from equine serum (BuChE) (Equus caballus, UniProt P81908); test: BuChE inhibition; assay type: biochemical
# T1 construct: butyrylcholinesterase from equine serum (BuChE); from tissue; host or cells: equine serum
# Source text: as §1
# (§2) The results were expressed as IC50 and selective index (SI=BuChE/AChE) values.
# [3] = biological target: acetylcholinesterase from Electrophorus electricus (AChE) (Electrophorus electricus, UniProt O42275); test: biochemical; details: for SI (BuChE/AChE): selective index = IC50 BuChE/AChE
# Source text: as §1, §2
# AChE [4] = biological target: T2, AChE (Electrophorus electricus, UniProt O42275); test: Compound-protein binding by UV-Vis spectroscopy; details: AChE 10 µM; BDPY-4 5, 10, 15 and 20 µM
# Method: To determine the structural change of AChE (10 µM) induced by BDPY-4, we measured the UV-Vis spectroscopy by adding the compound (5, 10, 15, and 20 µM) into AChE solution (10 µM). AChE has an absorption peak at 282 nm due to aromatic amino acids.
# AChE [5] = biological target: T2, AChE; test: AChE inhibition mechanism (Lineweaver–Burk and Dixon plots); assay type: biochemical; details: for Vmax: substrate acetylthiocholine iodide
# Source text: Acetylthiocholine iodide was used as a substrate for AChE inhibition.
# T1 sequence (P81908 whole entry): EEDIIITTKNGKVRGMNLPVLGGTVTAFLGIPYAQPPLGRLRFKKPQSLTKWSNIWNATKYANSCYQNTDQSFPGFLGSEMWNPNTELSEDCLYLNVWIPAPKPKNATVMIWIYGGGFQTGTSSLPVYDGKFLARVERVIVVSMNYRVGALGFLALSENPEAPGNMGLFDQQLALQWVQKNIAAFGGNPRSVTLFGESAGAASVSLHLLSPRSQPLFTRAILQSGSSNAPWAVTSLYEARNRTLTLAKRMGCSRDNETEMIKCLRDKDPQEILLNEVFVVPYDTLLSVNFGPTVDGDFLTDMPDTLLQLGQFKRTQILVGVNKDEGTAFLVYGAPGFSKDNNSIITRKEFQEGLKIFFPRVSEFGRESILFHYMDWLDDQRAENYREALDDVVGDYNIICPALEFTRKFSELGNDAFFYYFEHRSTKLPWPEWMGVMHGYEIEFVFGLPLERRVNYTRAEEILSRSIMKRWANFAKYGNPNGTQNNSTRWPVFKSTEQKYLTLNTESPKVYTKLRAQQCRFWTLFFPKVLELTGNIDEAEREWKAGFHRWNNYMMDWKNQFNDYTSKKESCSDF
# T2 sequence (O42275 24-633): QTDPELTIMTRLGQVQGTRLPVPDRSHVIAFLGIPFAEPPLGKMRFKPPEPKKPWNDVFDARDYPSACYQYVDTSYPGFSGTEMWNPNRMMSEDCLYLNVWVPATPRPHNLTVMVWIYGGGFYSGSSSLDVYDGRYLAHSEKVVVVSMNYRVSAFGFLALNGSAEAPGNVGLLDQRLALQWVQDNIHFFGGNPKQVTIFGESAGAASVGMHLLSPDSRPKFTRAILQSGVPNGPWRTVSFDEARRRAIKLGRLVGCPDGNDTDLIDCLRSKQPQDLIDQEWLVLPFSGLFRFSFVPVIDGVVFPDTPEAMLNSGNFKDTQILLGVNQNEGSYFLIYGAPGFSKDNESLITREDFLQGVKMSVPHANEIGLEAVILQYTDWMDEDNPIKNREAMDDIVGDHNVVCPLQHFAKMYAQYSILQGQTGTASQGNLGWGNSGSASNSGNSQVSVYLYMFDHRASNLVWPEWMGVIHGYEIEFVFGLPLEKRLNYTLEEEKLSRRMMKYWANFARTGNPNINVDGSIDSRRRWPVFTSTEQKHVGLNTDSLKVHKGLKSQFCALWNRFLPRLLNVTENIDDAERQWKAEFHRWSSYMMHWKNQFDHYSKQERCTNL
# Chain of acetylcholinesterase from Electrophorus electricus (AChE) (O42275 24-633): as above
Compound,IC50 [1],IC50 [2],IC50 [3],SI (BuChE/AChE) [3],Change of AChE absorbance (AChE [4]),Shift of AChE absorption peak (AChE [4]),Vmax (AChE [5]; 50 µM BDPY-4),Vmax (AChE [5]; 100 µM BDPY-4),"Ki (AChE [5]; Dixon plot, read-out: Ki (inhibition constant))",Inhibitory type (AChE [5]; Lineweaver–Burk plot)
CC1=CC(C)=[N+]2C1=C(c1ccc(OCCCc3ccncc3)cc1)c1c(C)cc(C)n1[B-]2(F)F [BDPY-2],219 ± 8.71 µM,185 ± 5.49 µM,72.5 ± 2.95 µM,2.55,–,–,–,–,–,–
CC1=CC(/C=C/c2ccc(OCCCc3ccncc3)cc2)=[N+]2C1=C(c1ccc(OCCCc3ccncc3)cc1)c1c(C)cc(/C=C/c3ccc(OCCCc4ccncc4)cc3)n1[B-]2(F)F [BDPY-4],95 ± 4.77 µM,150 ± 6.09 µM,54.8 ± 4.51 µM,2.74,hyperchromism,shifted from 282 nm to 285 nm,196.08 µM/min,126.58 µM/min,57.2 ± 0.2 µM,noncompetitive inhibitor
CC1=CC(/C=C/c2ccc(OCCCc3cccnc3)cc2)=[N+]2C1=C(c1ccc(OCCCc3ccncc3)cc1)c1c(C)cc(/C=C/c3ccc(OCCCc4cccnc4)cc3)n1[B-]2(F)F [BDPY-5],106 ± 5.03 µM,170 ± 4.33 µM,64.9 ± 3.89 µM,2.62,–,–,–,–,–,–
